In PubChem BioAssay AID1918935 (Molecular Pharmacology Branch, DTP, NCI, 2023):
pIC50: −log10 of the molar value. “And” between values parts separate entries of the source, which are not always exact repeats. Equal values may be shown once.

Tested on: 324938-238-R-J1-PDC complex spheroid viability
Test: Anticancer human tumor 324938-238-R-J1-PDC patient-derived bladder carcinoma cell line growth inhibition
Settings: for viability, T/C: stronger effect = lower value
How it was run: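 Complex spheroids of tumor cells with HUVEC and human MSCs, exposed to iadademstat combined with other agents. Each agent tested in half-log steps from near clinical Cmax (else 10 microM top), DMSO ≤0.25%.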

[1] = curve of first compound, second compound 0.1 µM
[2] = curve of first compound, second compound 0.316 µM
[3] = curve of first compound, second compound 1 µM
[4] = curve of first compound, second compound 3.16 µM
[5] = curve of first compound, second compound 10 µM
[6] = second compound 0.1 µM, first compound 0.00316 µM
[7] = second compound 0.1 µM, first compound 0.01 µM
[8] = second compound 0.1 µM, first compound 0.0316 µM
[9] = second compound 0.1 µM, first compound 0.1 µM
[10] = second compound 0.316 µM, first compound 0.00316 µM
[11] = second compound 0.316 µM, first compound 0.01 µM
[12] = second compound 0.316 µM, first compound 0.0316 µM
[13] = second compound 0.316 µM, first compound 0.1 µM
[14] = second compound 1 µM, first compound 0.00316 µM
[15] = second compound 1 µM, first compound 0.01 µM
[16] = second compound 1 µM, first compound 0.0316 µM
[17] = second compound 1 µM, first compound 0.1 µM
[18] = second compound 3.16 µM, first compound 0.00316 µM
[19] = second compound 3.16 µM, first compound 0.01 µM
[20] = second compound 3.16 µM, first compound 0.0316 µM
[21] = second compound 3.16 µM, first compound 0.1 µM
[22] = second compound 10 µM, first compound 0.00316 µM
[23] = second compound 10 µM, first compound 0.01 µM
[24] = second compound 10 µM, first compound 0.0316 µM
[25] = second compound 10 µM, first compound 0.1 µM
[26] = second compound 0.1 µM, first compound 0.000316 µM
[27] = second compound 0.1 µM, first compound 0.001 µM
[28] = second compound 0.316 µM, first compound 0.000316 µM
[29] = second compound 0.316 µM, first compound 0.001 µM
[30] = second compound 1 µM, first compound 0.000316 µM
[31] = second compound 1 µM, first compound 0.001 µM
[32] = second compound 3.16 µM, first compound 0.000316 µM
[33] = second compound 3.16 µM, first compound 0.001 µM
[34] = second compound 10 µM, first compound 0.000316 µM
[35] = second compound 10 µM, first compound 0.001 µM
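Further: spheroids also contain HUVEC and human MSCs and agents combined with iadademstat; spheroids exposed to agents for 7 days before readout.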

## COc1cc(Nc2ncc3c(n2)-c2ccc(Cl)cc2C(c2c(F)cccc2OC)=NC3)ccc1C(=O)O + NC1CC1c1ccc(-c2cccc(O)c2)cc1
[1]
  pIC50: 7.97
[2]
  pIC50: 8.02
[3]
  pIC50: 7.92
[4]
  pIC50: 7.86
[5]
  pIC50: 7.97
[6]
  viability, T/C: 76.1%
[7]
  viability, T/C: 51%
[8]
  viability, T/C: 28.1%
[9]
  viability, T/C: 13.9%
Second compound 0.1 µM, first compound 0.316 µM
  viability, T/C: 18.2%
Second compound 0.1 µM, first compound 1 µM
  viability, T/C: 13.9%
[10]
  viability, T/C: 69.5%
[11]
  viability, T/C: 48.3%
[12]
  viability, T/C: 30%
[13]
  viability, T/C: 16%
Second compound 0.316 µM, first compound 0.316 µM
  viability, T/C: 15.8%
Second compound 0.316 µM, first compound 1 µM
  viability, T/C: 14.8%
[14]
  viability, T/C: 63%
[15]
  viability, T/C: 54.3%
[16]
  viability, T/C: 26.2%
[17]
  viability, T/C: 16.5%
Second compound 1 µM, first compound 0.316 µM
  viability, T/C: 17.6%
Second compound 1 µM, first compound 1 µM
  viability, T/C: 15.1%
[18]
  viability, T/C: 62.6%
[19]
  viability, T/C: 57.6%
[20]
  viability, T/C: 30%
[21]
  viability, T/C: 18.1%
Second compound 3.16 µM, first compound 0.316 µM
  viability, T/C: 18.8%
Second compound 3.16 µM, first compound 1 µM
  viability, T/C: 16.5%
[22]
  viability, T/C: 57.4%
[23]
  viability, T/C: 51.2%
[24]
  viability, T/C: 29.5%
[25]
  viability, T/C: 19.4%
Second compound 10 µM, first compound 0.316 µM
  viability, T/C: 19.7%
Second compound 10 µM, first compound 1 µM
  viability, T/C: 25.8%

## NS(=O)(=O)OCC1CC(n2ccc3c(NC4CCc5ccccc54)ncnc32)CC1O (centres undefined) + NC1CCC(NC2CC2c2ccccc2)CC1
[1]
  pIC50: 6.47
[2]
  pIC50: 6.47
[3]
  pIC50: 6.41
[4]
  pIC50: 6.51
[5]
  pIC50: 6.49
Second compound 0.1 µM, first compound 0.00949 µM
  viability, T/C: 81.7%
Second compound 0.1 µM, first compound 0.03 µM
  viability, T/C: 78.5%
Second compound 0.1 µM, first compound 0.0949 µM
  viability, T/C: 84.7%
Second compound 0.1 µM, first compound 0.3 µM
  viability, T/C: 54.2%
Second compound 0.1 µM, first compound 0.949 µM
  viability, T/C: 11.7%
Second compound 0.1 µM, first compound 3 µM
  viability, T/C: 11.9%
Second compound 0.316 µM, first compound 0.00949 µM
  viability, T/C: 86.5%
Second compound 0.316 µM, first compound 0.03 µM
  viability, T/C: 88.1%
Second compound 0.316 µM, first compound 0.0949 µM
  viability, T/C: 79.9%
Second compound 0.316 µM, first compound 0.3 µM
  viability, T/C: 54.7%
Second compound 0.316 µM, first compound 0.949 µM
  viability, T/C: 14.3%
Second compound 0.316 µM, first compound 3 µM
  viability, T/C: 11.5%
Second compound 1 µM, first compound 0.00949 µM
  viability, T/C: 79.2%
Second compound 1 µM, first compound 0.03 µM
  viability, T/C: 84.3%
Second compound 1 µM, first compound 0.0949 µM
  viability, T/C: 82.4%
Second compound 1 µM, first compound 0.3 µM
  viability, T/C: 60.1%
Second compound 1 µM, first compound 0.949 µM
  viability, T/C: 15.7%
Second compound 1 µM, first compound 3 µM
  viability, T/C: 15.9%
Second compound 3.16 µM, first compound 0.00949 µM
  viability, T/C: 77.6%
Second compound 3.16 µM, first compound 0.03 µM
  viability, T/C: 74.5%
Second compound 3.16 µM, first compound 0.0949 µM
  viability, T/C: 83.3%
Second compound 3.16 µM, first compound 0.3 µM
  viability, T/C: 50.9%
Second compound 3.16 µM, first compound 0.949 µM
  viability, T/C: 15.5%
Second compound 3.16 µM, first compound 3 µM
  viability, T/C: 15.8%
Second compound 10 µM, first compound 0.00949 µM
  viability, T/C: 86.3%
Second compound 10 µM, first compound 0.03 µM
  viability, T/C: 72.8%
Second compound 10 µM, first compound 0.0949 µM
  viability, T/C: 79.9%
Second compound 10 µM, first compound 0.3 µM
  viability, T/C: 52.2%
Second compound 10 µM, first compound 0.949 µM
  viability, T/C: 16.3%
Second compound 10 µM, first compound 3 µM
  viability, T/C: 13.3%

## CC(C)CC(NC(=O)C(Cc1ccccc1)NC(=O)c1cnccn1)B(O)O (centres undefined) + NC1CCC(NC2CC2c2ccccc2)CC1
[1]
  pIC50: 9.33
[2]
  pIC50: 9.35
[3]
  pIC50: 9.32
[4]
  pIC50: 9.35
[5]
  pIC50: 9.36
[26]
  viability, T/C: 66.8%
[27]
  viability, T/C: 18.7%
[6]
  viability, T/C: 0.06%
[7]
  viability, T/C: 0.03%
[8]
  viability, T/C: 0.03%
[9]
  viability, T/C: 0.15%
[28]
  viability, T/C: 64.9%
[29]
  viability, T/C: 14.3%
[10]
  viability, T/C: 0.14%
[11]
  viability, T/C: 0.01%
[12]
  viability, T/C: 0.02%
[13]
  viability, T/C: 0.12%
[30]
  viability, T/C: 72.2%
[31]
  viability, T/C: 12.1%
[14]
  viability, T/C: 0.1%
[15]
  viability, T/C: 0.01%
[16]
  viability, T/C: 0.73%
[17]
  viability, T/C: 0.11%
[32]
  viability, T/C: 65%
[33]
  viability, T/C: 13.8%
[18]
  viability, T/C: 0.43%
[19]
  viability, T/C: 0.02%
[20]
  viability, T/C: 0.03%
[21]
  viability, T/C: 0.12%
[34]
  viability, T/C: 65%
[35]
  viability, T/C: 10.8%
[22]
  viability, T/C: 0.12%
[23]
  viability, T/C: 0.29%
[24]
  viability, T/C: 0.1%
[25]
  viability, T/C: 0.17%

## Cn1ncnc1C1c2n[nH]c(=O)c3cc(F)cc(c23)NC1c1ccc(F)cc1 (centres undefined) + NC1CCC(NC2CC2c2ccccc2)CC1
[1]
  pIC50: < 7.00
[2]
  pIC50: < 7.00
[3]
  pIC50: < 7.00
[4]
  pIC50: 7.10
[5]
  pIC50: 7.13
[26]
  viability, T/C: 75.7%
[27]
  viability, T/C: 81.6%
[6]
  viability, T/C: 66.8%
[7]
  viability, T/C: 64.1%
[8]
  viability, T/C: 63.1%
[9]
  viability, T/C: 50.8%
[28]
  viability, T/C: 95%
[29]
  viability, T/C: 86.9%
[10]
  viability, T/C: 73.8%
[11]
  viability, T/C: 66.3%
[12]
  viability, T/C: 65.4%
[13]
  viability, T/C: 55.8%
[30]
  viability, T/C: 70.3%
[31]
  viability, T/C: 71.1%
[14]
  viability, T/C: 77.2%
[15]
  viability, T/C: 73%
[16]
  viability, T/C: 59.8%
[17]
  viability, T/C: 52.6%
[32]
  viability, T/C: 68.1%
[33]
  viability, T/C: 77.6%
[18]
  viability, T/C: 74.7%
[19]
  viability, T/C: 66.8%
[20]
  viability, T/C: 58.4%
[21]
  viability, T/C: 48.1%
[34]
  viability, T/C: 66.2%
[35]
  viability, T/C: 72.7%
[22]
  viability, T/C: 71.8%
[23]
  viability, T/C: 65%
[24]
  viability, T/C: 54.7%
[25]
  viability, T/C: 48.3%

## CC[C@@]1(O)C(=O)OCc2c1cc1n(c2=O)Cc2cc3c(CN(C)C)c(O)ccc3nc2-1
Compound 0.000316 µM
  viability, T/C: 101% and 94.5%
Compound 0.001 µM
  viability, T/C: 93% and 83.5%
Compound 0.00316 µM
  viability, T/C: 31.2% and 27.9%
Compound 0.01 µM
  viability, T/C: 8.43% and 7.17%
Compound 0.0316 µM
  viability, T/C: 8.29% and 8.05%
Compound 0.1 µM
  viability, T/C: 8.03% and 7.71%
Curve of compound
  pIC50: 8.65 and 8.70

## CC(C)CC(NC(=O)CNC(=O)c1cc(Cl)ccc1Cl)B1OC(=O)CC(CC(=O)O)(C(=O)O)O1 (centres undefined)
Compound 0.000316 µM
  viability, T/C: 104% and 111%
Compound 0.001 µM
  viability, T/C: 106% and 77.7%
Compound 0.00316 µM
  viability, T/C: 38.2% and 23.3%
Compound 0.01 µM
  viability, T/C: 5.09% and 2.42%
Compound 0.0316 µM
  viability, T/C: 0.23% and 0.77%
Compound 0.1 µM
  viability, T/C: 0.23% and 0.24%
Curve of compound
  pIC50: 8.59 and 8.75
